From US8853222B2, “Treatment of herpes virus related diseases” (priority 2008, dated 2014)
Entries after “also recorded” stand apart in the source; their conditions may differ. Read-outs that look alike come from different tables or passages of the source.

Tests used:
[1] = oral, maximum dose of 800 mg 5 times per day, most patients; cited from earlier work
[2] = cited from earlier work
[3] = cited from earlier work; remark: listed apart in the source
[4] = Renal function by creatinine clearance in one patient; format: in vivo, human; details: from ~29 mL/min before
From the text: This treatment is useful, not only in stopping the progression of the diseases, but in returning more of organ function previously lost. Text books claim that organ function lost to these diseases can never be recovered, but this treatment has succeeded in recovering nearly all lost organ function. One of the diseases for which a large return of function appears achievable is progressive loss of renal function by unknown cause, but suspected to be autoimmune disease related. A clinical laboratory measure of kidney function is creatinine clearance. Creatinine is the metabolic product formed from creatine when food is converted to energy. Creatinine is produced at a steady state and is affected very little by diet or normal physical activities. When a subject's kidneys are damaged and/or cannot function normally, the amount of creatinine excreted in the subject's urine decreases while its level in the blood increases. Thus, the blood level of creatinine indicates how well the kidneys are working A higher than normal blood level of creatinine usually means the kidneys are not functioning properly. […] As the measured kidney function improves a parallel process occurs in other affected tissues or organs, with a diminution of the visible inflammation, swelling, pain, grinding and clicks in the afflicted articular joints. […]

[5] = system: HSV-II; assay: Suppression of vesicle formation, prodrome and viral shedding in person with ongoing HSV-II infection; format: in vivo, human
From the text: The inventor in this application is aware of the prior art teaching of U.S. Pat. No. 5,559,114 (“'114”) and International Application No. PCT/US95/16207 (“16207”) that describe the treatment of certain autoimmune diseases using higher than FDA-approved amounts of certain 2-amino purine derivatives. According to the teachings of the '114 patent and the 16207 application, one compound useful was acyclovir (or its precursor valacyclovir) at a level of 20 to 50 g per day for a 100 kg subject (or 5-10 g of valacyclovir). Another compound was famciclovir (the precursor of penciclovir) at about 4-10 g per day for a 100 kg subject ([…]). In following the treatment regime so taught for a subject having HSV-II infection and with the drug used to suppress autoimmune disease signs or symptoms, the inventor of the present invention observed that although the signs or symptoms of the subject's autoimmune disease improved, the subject continued to experience discomfort even if the high dose regimen of famciclovir described in the '114 patent was followed for a number of years. In addition, the subject continued to have prodrome episodes, vesicle outbreaks, and viral shedding. The prodrome is the sensation of tingling, pain or both in an area where the herpetic vesicles will appear within 24 to 48 hours. This is a very reliable signal that vesicles will appear on schedule. Vesicles are blisters or ulcers that appear on the skin or various mucous membranes as a result of the virus's replication process destroying cells that it has invaded. Viral shedding means that the virus is active on the skin, even though there is no prodrome or vesicle formation, and can be transmitted to another subject through skin contact, kissing, sexual intercourse, or oral sex.
This inventor interprets this to mean that viral shedding has been reduced dramatically, at least 90%. It is probably that viral shedding has been stopped completely. […]

[6] = Aseptic meningio-encephalitis subject treated with much higher doses; format: in vivo, human; details: much higher doses than '114
From the text: While the treatment of autoimmune disease using high levels of the anti-herpetic drugs taught in patent '114 provided noticeable improvements in a patient, signs or symptoms lingered even with ongoing treatment. Knowing the warning of the anti-herpetic drug labels that were on the market against using higher doses, increasing the dose even further was definitely contraindicated. However, the inventor was confronted with a problem of a subject presenting with extremely painful migraine type headache, which was diagnosed to be aseptic (not bacterial) meningio-encephalitis. […] The inventor also discovered that by using the much higher doses of famciclovir than previously taught in '114, the need to titrate a subject to tolerance of the drug could be avoided, that is the higher doses were effective at ameliorating the signs or symptoms of the disease without the accompanying pain of starting at a low dose and increasing it to a therapeutically effective level, as experienced with the doses of '114. While not wishing to be bound by a particular theory, it is thought that by regularly administering the higher levels the drug, a subject avoids a fluctuating blood level that can add to the irritation of already irritated nerves by major influxes of drug at a high level after having been at a lower level in the subject. […]

**Q.** For `Nc1nc2c(ncn2COCCO)c(=O)[nH]1` [acyclovir, 2-amino-1,9-dihydro-9-[(2-hydroxyethoxy)methyl]-6H-purin-6-one], which blood level [1] is on record?
**A.** The blood level was “about 1.61 μg/mL”.

**Q.** What about the “effect on pain, muscle spasms, joint tenderness and butterfly rash” value ([2]; lupus patient, between 40 and 50 g per day) of the same compound?
**A.** Its value is “controlled pain, muscle spasms, joint tenderness and the butterfly rash”.

**Q.** Which results are given for `CC(=O)OCC(CCn1cnc2cnc(N)nc21)COC(C)=O` [famciclovir, 2-[2-(2-amino-9H-purin-9-yl)ethyl]-1,3-propanediol diacetate]?
**A.** oral bioavailability ([3]; in vivo, po): 77±8%; creatinine clearance ([4]; doses of '114, same patient): ~89 mL/min; creatinine clearance ([4]; very high doses, one patient): more than 140 mL/min; effect on pain, muscle spasms, joint tenderness and butterfly rash ([2]; 10-12 g per day): same effect; viral shedding reduced ([5]; 300 mg/kg/day, inventor's interpretation from suppressed sensations): at least 90%; prodrome and vesicle outbreak ([5]; 10-12 g per day ('114 dose level)): continued to experience prodrome and vesicle outbreak; vesicle formation ([5]; ongoing dosage of 300 mg/kg/day, 300 mg/kg/day): no new vesicles form; also recorded: total suppression; signs or symptoms of the encephalitis [6]: alleviated

**Q.** For `CC(C)[C@H](N)C(=O)OCCOCn1cnc2c(=O)[nH]c(N)nc21` [valacyclovir, L-valine, 2-[(2-amino-1,6-dihydro-6-oxo-9H-purin-9-yl)methoxy]ethyl ester], which oral bioavailability ([3]; oral) is on record?
**A.** The oral bioavailability was 55±9%.
